{"source": "DBAASP", "experiment_in_all_cases": "≥ marks a high value that may be exact or a test limit, other limits are often not marked, values filed in µg/mL are converted to µM", "key": {"[1]": {"tested_on": "Candida albicans CPCC 400416"}, "[2]": {"tested_on": "Escherichia coli CPCC 100521"}, "[3]": {"tested_on": "Staphylococcus aureus CPCC 100520"}, "[4]": {"tested_on": "Acinetobacter baumannii CCARM 12035"}, "[5]": {"tested_on": "Acinetobacter baumannii CCARM 12036"}, "[6]": {"tested_on": "Acinetobacter baumannii KCTC 2508"}, "[7]": {"tested_on": "Bacillus subtilis KCTC 3028"}, "[8]": {"tested_on": "Escherichia coli CCARM 1229"}, "[9]": {"tested_on": "Escherichia coli CCARM 1238"}, "[10]": {"tested_on": "Escherichia coli KCTC 1682"}, "[11]": {"tested_on": "Pseudomonas aeruginosa CCARM 2002"}, "[12]": {"tested_on": "Pseudomonas aeruginosa CCARM 2095"}, "[13]": {"tested_on": "Pseudomonas aeruginosa KCTC 1637"}, "[14]": {"tested_on": "Salmonella typhimurium CCARM 8003"}, "[15]": {"tested_on": "Salmonella typhimurium CCARM 8007"}, "[16]": {"tested_on": "Salmonella typhimurium KCTC 1926"}, "[17]": {"tested_on": "Staphylococcus aureus CCARM 3089"}, "[18]": {"tested_on": "Staphylococcus aureus CCARM 3108"}, "[19]": {"tested_on": "Staphylococcus aureus CCARM 3126"}, "[20]": {"tested_on": "Staphylococcus aureus KCTC 1621"}, "[21]": {"tested_on": "Staphylococcus epidermidis KCTC 1917"}, "[22]": {"tested_on": "Staphylococcus aureus ATCC 33592"}, "[23]": {"tested_on": "Staphylococcus aureus NCTC 8530"}, "[24]": {"tested_on": "Aeromonas hydrophila CGMCC 1.0927"}, "[25]": {"tested_on": "Aeromonas sobria"}, "[26]": {"tested_on": "Bacillus subtilis CGMCC 1.108"}, "[27]": {"tested_on": "Candida albicans CGMCC 2.2411"}, "[28]": {"tested_on": "Corynebacterium glutamicum CGMCC 1.1886"}, "[29]": {"tested_on": "Edwardsiella tarda"}, "[30]": {"tested_on": "Escherichia coli MC1061"}, "[31]": {"tested_on": "Micrococcus luteus CGMCC 1.0634"}, "[32]": {"tested_on": "Micrococcus luteus CGMCC 1.634"}, "[33]": {"tested_on": "Pseudomonas fluorescens CGMCC 1.0032"}, "[34]": {"tested_on": "Shigella flexneri CGMCC 1.1868"}, "[35]": {"tested_on": "Staphylococcus aureus CGMCC 1.363"}, "[36]": {"tested_on": "Staphylococcus epidermidis CGMCC 1.2429"}, "[37]": {"tested_on": "Vibrio alginolyticus CGMCC 1.1833"}, "[38]": {"tested_on": "Vibrio fluvialis CGMCC 1.1609"}, "[39]": {"tested_on": "Vibrio harveyi CGMCC 1.1593"}, "[40]": {"tested_on": "Vibrio parahaemolyticus CGMCC 1.1615"}, "[41]": {"tested_on": "Enterobacter cloacae"}, "[42]": {"tested_on": "Escherichia coli ATCC 25922"}, "[43]": {"tested_on": "Escherichia coli ML-35p"}, "[44]": {"tested_on": "Escherichia coli"}, "[45]": {"tested_on": "Klebsiella aerogenes"}, "[46]": {"tested_on": "Pseudomonas aeruginosa ATCC 27853"}, "[47]": {"tested_on": "Pseudomonas aeruginosa PAO1"}, "[48]": {"tested_on": "Pseudomonas aeruginosa"}, "[49]": {"tested_on": "Staphylococcus aureus ATCC 25923"}, "[50]": {"tested_on": "Staphylococcus aureus"}}, "data": [{"compound": "CC[C@H](C)[C@H](NC(=O)CN)C(=O)NCC(=O)NCC(=O)N[C@@H](C)C(=O)N[C@@H](CC(C)C)C(=O)N[C@@H](CC(C)C)C(=O)N[C@@H](CO)C(=O)N[C@@H](C)C(=O)NCC(=O)N[C@@H](CCCCN)C(=O)N[C@@H](CO)C(=O)N[C@@H](C)C(=O)N[C@@H](CC(C)C)C(=O)N[C@@H](CCCCN)C(=O)NCC(=O)N[C@@H](CC(C)C)C(=O)N[C@@H](C)C(=O)N[C@@H](CCCCN)C(=O)NCC(=O)N[C@@H](CC(C)C)C(=O)N[C@@H](C)C(=O)N[C@@H](CCC(=O)O)C(=O)N[C@@H](Cc1cnc[nH]1)C(=O)N[C@@H](Cc1ccccc1)C(=O)N[C@@H](C)C(=O)N[C@@H](CC(N)=O)C(N)=O", "note": "[GIGGALLSAGKSALKGLAKGLAEHFAN]", "values": [{"measurement": "MIC", "setting": "[1]", "result": 12.5, "unit": "µM"}, {"measurement": "MIC", "setting": "[2]", "result": 6.3, "unit": "µM"}, {"measurement": "MIC", "setting": "[3]", "result": 6.3, "unit": "µM"}]}, {"compound": "CC[C@H](C)[C@H](NC(=O)[C@H](C)NC(=O)[C@H](CCCCN)NC(=O)[C@H](Cc1cnc[nH]1)NC(=O)[C@@H](NC(=O)[C@@H]1CCCN1C(=O)[C@H](CCC(N)=O)NC(=O)[C@H](Cc1ccccc1)NC(=O)[C@@H](NC(=O)[C@H](CCCCN)NC(=O)[C@H](CCCCN)NC(=O)[C@H](CC(C)C)NC(=O)[C@H](C)NC(=O)[C@H](CC(N)=O)NC(=O)[C@H](CC(C)C)NC(=O)CN)C(C)C)[C@@H](C)CC)C(=O)N[C@@H](CCCCN)C(=O)N[C@@H](CCCCN)C(=O)N[C@H](C(=O)N[C@@H](CC(N)=O)C(=O)N[C@@H](CC(N)=O)C(=O)N[C@@H](Cc1cnc[nH]1)C(=O)N[C@H](C(=O)N[C@@H](CCC(N)=O)C(=O)O)C(C)C)[C@@H](C)CC", "note": "[GLNALKKVFQPIHKAIKKINNHVQ]", "values": [{"measurement": "MIC", "setting": "[4]", "result": 16, "unit": "µM"}, {"measurement": "MIC", "setting": "[5]", "result": 8, "unit": "µM"}, {"measurement": "MIC", "setting": "[6]", "result": 8, "unit": "µM"}, {"measurement": "MIC", "setting": "[7]", "result": "≥ 32", "unit": "µM"}, {"measurement": "MIC", "setting": "[8]", "result": 8, "unit": "µM"}, {"measurement": "MIC", "setting": "[9]", "result": 8, "unit": "µM"}, {"measurement": "MIC", "setting": "[10]", "result": 4, "unit": "µM"}, {"measurement": "MIC", "setting": "[11]", "result": 16, "unit": "µM"}, {"measurement": "MIC", "setting": "[12]", "result": 16, "unit": "µM"}, {"measurement": "MIC", "setting": "[13]", "result": 8, "unit": "µM"}, {"measurement": "MIC", "setting": "[14]", "result": 16, "unit": "µM"}, {"measurement": "MIC", "setting": "[15]", "result": 16, "unit": "µM"}, {"measurement": "MIC", "setting": "[16]", "result": 8, "unit": "µM"}, {"measurement": "MIC", "setting": "[17]", "result": "≥ 32", "unit": "µM"}, {"measurement": "MIC", "setting": "[18]", "result": "≥ 32", "unit": "µM"}, {"measurement": "MIC", "setting": "[19]", "result": "≥ 64", "unit": "µM"}, {"measurement": "MIC", "setting": "[20]", "result": "≥ 32", "unit": "µM"}, {"measurement": "MIC", "setting": "[21]", "result": "≥ 64", "unit": "µM"}]}, {"compound": "CC[C@H](C)[C@H](NC(=O)[C@H](CCCCN)NC(=O)[C@H](CCCN=C(N)N)NC(=O)[C@@H](N)CCCCN)C(=O)N[C@@H](Cc1ccccc1)C(=O)N[C@@H](CC(C)C)C(=O)N[C@@H](CCCN=C(N)N)C(=O)N[C@H](C(=O)N[C@@H](CCCCN)C(=O)N[C@H](C(=O)N[C@@H](CC(C)C)C(=O)N[C@H](C(=O)O)C(C)C)[C@@H](C)CC)[C@@H](C)O", "note": "[KRKIFLRTKILV]", "values": [{"measurement": "MIC", "setting": "[22]", "result": 3, "unit": "µM"}, {"measurement": "MIC", "setting": "[23]", "result": 3, "unit": "µM"}]}, {"compound": "CC[C@H](C)[C@H](NC(=O)[C@H](CCCN=C(N)N)NC(=O)CNC(=O)[C@@H](N)C(C)C)C(=O)N[C@@H](Cc1cnc[nH]1)C(=O)N[C@@H](CCCN=C(N)N)C(=O)N[C@@H](Cc1cnc[nH]1)C(=O)N[C@@H](CC(C)C)C(=O)N[C@@H](CCCCN)C(=O)O", "note": "[VGRIHRHLK]", "values": [{"measurement": "MIC", "setting": "[24]", "result": "≥ 48", "unit": "µM"}, {"measurement": "MIC", "setting": "[25]", "result": "≥ 48", "unit": "µM"}, {"measurement": "MIC", "setting": "[26]", "result": "≥ 48", "unit": "µM"}, {"measurement": "MIC", "setting": "[27]", "result": "≥ 48", "unit": "µM"}, {"measurement": "MIC", "setting": "[28]", "result": 17, "unit": "µM"}, {"measurement": "MIC", "setting": "[29]", "result": "≥ 48", "unit": "µM"}, {"measurement": "MIC", "setting": "[30]", "result": "≥ 48", "unit": "µM"}, {"measurement": "MIC", "setting": "[31]", "result": "≥ 48", "unit": "µM"}, {"measurement": "MIC", "setting": "[32]", "result": 8.49, "unit": "µM"}, {"measurement": "MIC", "setting": "[33]", "result": 8.49, "unit": "µM"}, {"measurement": "MIC", "setting": "[34]", "result": "≥ 48", "unit": "µM"}, {"measurement": "MIC", "setting": "[35]", "result": 17, "unit": "µM"}, {"measurement": "MIC", "setting": "[36]", "result": "≥ 48", "unit": "µM"}, {"measurement": "MIC", "setting": "[37]", "result": "≥ 48", "unit": "µM"}, {"measurement": "MIC", "setting": "[38]", "result": "≥ 48", "unit": "µM"}, {"measurement": "MIC", "setting": "[39]", "result": "≥ 48", "unit": "µM"}, {"measurement": "MIC", "setting": "[40]", "result": "≥ 48", "unit": "µM"}]}, {"compound": "CC[C@H](C)[C@H](NC(=O)[C@@H](NC(=O)[C@H](CCCN=C(N)N)NC(=O)[C@@H]1CCCN1C(=O)[C@H](CCCCN)NC(=O)[C@H](CCCCN)NC(=O)[C@H](Cc1ccccc1)NC(=O)[C@H](Cc1ccccc1)NC(=O)[C@H](CCCCN)NC(=O)[C@H](CCCCN)NC(=O)[C@H](C)N)C(C)C)C(=O)NCC(=O)N[C@H](C(=O)N[C@@H](CO)C(=O)N[C@H](C(=O)N1CCC[C@H]1C(=O)N[C@@H](Cc1ccccc1)C(=O)O)[C@@H](C)CC)C(C)C", "note": "[AKKFFKKPRVIGVSIPF]", "values": [{"measurement": "MIC", "setting": "[41]", "result": 10.7, "unit": "µM"}, {"measurement": "MIC", "setting": "[42]", "result": 1.53, "unit": "µM"}, {"measurement": "MIC", "setting": "[43]", "result": 2.55, "unit": "µM"}, {"measurement": "MIC", "setting": "[44]", "result": 2.04, "unit": "µM"}, {"measurement": "MIC", "setting": "[45]", "result": 13.8, "unit": "µM"}, {"measurement": "MIC", "setting": "[46]", "result": 3.57, "unit": "µM"}, {"measurement": "MIC", "setting": "[47]", "result": 6.62, "unit": "µM"}, {"measurement": "MIC", "setting": "[48]", "result": 6.62, "unit": "µM"}, {"measurement": "MIC", "setting": "[49]", "result": 21.4, "unit": "µM"}, {"measurement": "MIC", "setting": "[50]", "result": 5.1, "unit": "µM"}]}]}
